The record followed here is publication PMC10714399, “Open Source Antibiotics: Simple Diarylimidazoles Are Potent against Methicillin-Resistant Staphylococcus aureus” (ACS Infectious Diseases, 2023).

Converted amounts (≈) assume the structure as drawn.

Data set [1] concerns Staphylococcus aureus NCTC 13373 (mecA-positive; methicillin-resistant). The data set is described as follows: In vitro antibacterial activity, MIC (UCL School of Pharmacy assay), MRSA. The data set is classed as cell-based. The conditions noted are these: Staphylococcus aureus, UCL; read-out: MRSA MIC (UCL). The method in brief: (§1)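 Strains: MRSA NCTC 13373, MSSA ATCC 25923, vanA E. faecalis ATCC 51299. Overnight agar growth suspended in PBS, A600 0.1, diluted 1:100 into isosensitest broth; 2-fold compound dilutions 32–0.03 μg/mL, ≤2% DMSO. Vancomycin QC.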

The nature of another data set: Aqueous solubility. The note with it: NEU; for solubility: thermodynamic from solid, read-out: Aqueous Solubility (NEU). The data set is classed as physicochemical. From the text:
To guide our initial SAR exploration work, we obtained liver microsomal intrinsic clearance data for 5 of the 18 compounds assayed by CO-ADD (Supporting Information - CDCO Report and Supporting Information - Biology). We then acquired intrinsic clearance (CLint), plasma protein binding (PPB), and solubility data on further compounds throughout the SAR campaign (Supporting Information - Biology, Tables S3 and S4). […] The more polar compounds (lower LogD) had reduced PPB and were more metabolically stable.
(§2) Table S4. ADME and Pharmacokinetics: compounds only appearing in the Supplementary […]
(§3) MRSA Aqueous HLM CLint Rat Hep CLint
(§4) Cmpd MIC Solubility Human PPB (%) (µL/min/mg (µL/min/10x6 LogD7.4
(§5) (µg/mL) (µM) protein) cells)
(§6) ADME and toxicity for compounds were measured according to procedures outlined in the manuscript submitted in parallel to this one;2 other procedures were used for those compounds analysed by Monash University (in vitro ADME) or UCL (toxicity), both described in the main

Data set [2] in a line: Human plasma protein binding (PPB). The class given is in vitro ADME. The note with it: human, plasma, human plasma, NEU; read-out: Human PPB (NEU) (converted).
From the text: (§7) To guide our initial SAR exploration work, we obtained liver microsomal intrinsic clearance data for 5 of the 18 compounds assayed by CO-ADD (Supporting Information - CDCO Report and Supporting Information - Biology). We then acquired intrinsic clearance (CLint), plasma protein binding (PPB), and solubility data on further compounds throughout the SAR campaign (Supporting Information - Biology, Tables S3 and S4).
as §2, §3, §4, §5, §6

Data set [3] is described as follows: Human liver microsome intrinsic clearance. The class given is in vitro ADME. The note with it: human liver microsomes, NEU.
From the text: as §7, §2, §3, §4, §5, §6
For orientation: Liver microsomes are vesicles of endoplasmic reticulum, rich in cytochrome P450 enzymes.

Data set [4] is described as follows: Rat hepatocyte intrinsic clearance. The data set is classed as in vitro ADME. The conditions noted are these: rat hepatocytes, NEU.
From the text: as §7, §2, §3, §4, §5, §6

Data set [5] relates to Enterococcus faecalis ATCC 51299 (vanA-positive; vancomycin-resistant). The data set is described as follows: In vitro antibacterial activity, MIC (UCL), VRE. The class given is cell-based. The conditions noted are these: read-out: VRE MIC (UCL). The method in brief: as §1
Data set [6] deals with S. aureus ATCC 25923 (methicillin-susceptible). The experiment in a line: In vitro antibacterial activity, MIC (UCL), MSSA. The class given is cell-based, Staphylococcus aureus. The conditions noted are these: Staphylococcus aureus; read-out: MSSA MIC (UCL). The method, boiled down: as §1

The MIC is the least concentration at which growth counts as inhibited. The solubility is the dissolved amount per volume that the medium holds. Turning to `c1ccc(-c2nc3n(c2-c2ccc4sc5ccccc5c4c2)CCC3)nc1` [OSA_000831], the MIC in data set [1] turned out to be 8 µg/mL (≈ 21.8 µM). Further, the solubility in the data set “Aqueous solubility” is 3 µM (≈ 1.1 µg/mL). Also, in data set [2], the fraction unbound is 0.0008. Further, in data set [3], the “HLM CLint (NEU)” value came out at 42.6 uL/min/mg protein. For the same compound, the “Rat Hep CLint (NEU)” value in data set [4] is recorded as 151 uL/min/10x6 cells.

Consider `Cc1nc2cc(-c3c(-c4ccccn4)nc4n3CCC4)ccc2s1` [OSA_000836], for which the MIC in data set [1] came to 32 µg/mL (≈ 96.3 µM). Moreover, the solubility in the data set “Aqueous solubility” worked out at 10 µM (≈ 3.32 µg/mL). In data set [2], the fraction unbound was 0.098. Further, the “HLM CLint (NEU)” value in data set [3] was 34.1 uL/min/mg protein. In addition, the “Rat Hep CLint (NEU)” value in data set [4] amounted to 49.1 uL/min/10x6 cells.

With `CS(=O)(=O)c1ccc(-c2c(-c3ccccn3)nc3n2CCC3)cc1` [OSA_000837], the MIC in data set [1] and in data set [5] was above 32 µg/mL each time. In addition, the “Aqueous Solubility (NEU)” value in “Aqueous solubility” was determined as 317 µM. Further, in data set [2], the fraction unbound is 0.4. Besides, in data set [3], the “HLM CLint (NEU)” value is listed as below 3 uL/min/mg protein. Further, the “Rat Hep CLint (NEU)” value in data set [4] is reported as below 1 uL/min/10x6 cells.

`C[S+]([O-])c1ccc(-c2c(-c3ccccn3)nc3n2CCC3)cc1` (stereo not shown) [OSA_000838]: the MIC in data set [1] and in data set [5] was above 32 µg/mL each time. In the data set “Aqueous solubility”, the “Aqueous Solubility (NEU)” value came out at 756 µM. For the same compound, the fraction unbound in data set [2] was 0.45. Also, the “HLM CLint (NEU)” value in data set [3] was below 3 uL/min/mg protein. The “Rat Hep CLint (NEU)” value in data set [4] is given as below 1 uL/min/10x6 cells.

Take `N#Cc1cccc(-c2c(-c3ccccn3)nc3n2CCC3)c1` [OSA_000864]: the MIC in data set [1] and in data set [5] was above 32 µg/mL throughout. The solubility in “Aqueous solubility” stood at 37 µM (≈ 10.6 µg/mL). Further, the fraction unbound in data set [2] was 0.24. In addition, the “HLM CLint (NEU)” value in data set [3] is 43.7 uL/min/mg protein. Moreover, the “Rat Hep CLint (NEU)” value in data set [4] stood at 23.2 uL/min/10x6 cells.

As to `FC(F)(F)Oc1ccc(-c2c(-c3ccccn3)nc3n2CCC3)cc1` [OSA_000868], the MIC in data set [1] came out at 8 µg/mL (≈ 23.2 µM); in data set [5] it was 32 µg/mL (≈ 92.7 µM). Moreover, in the data set “Aqueous solubility”, the solubility stood at 38 µM (≈ 13.1 µg/mL). Besides, in data set [2], the fraction unbound was 0.044. The “HLM CLint (NEU)” value in data set [3] came out at 62.2 uL/min/mg protein. The “Rat Hep CLint (NEU)” value in data set [4] came to 54.1 uL/min/10x6 cells.

Regarding `Clc1ccc(-c2c(-c3ccccn3)nc3n2CCC3)cc1Cl` [OSA_000876], the MIC in data set [1] and in data set [5] was 8 µg/mL (≈ 24.2 µM) throughout. Further, in the data set “Aqueous solubility”, the solubility was found to be 3 µM (≈ 0.991 µg/mL). Besides, the fraction unbound in data set [2] was 0.015. Besides, the “HLM CLint (NEU)” value in data set [3] is listed as 100 uL/min/mg protein. For the same compound, in data set [4], the “Rat Hep CLint (NEU)” value is reported as 37.7 uL/min/10x6 cells.

As for `CN(C)C(=O)c1ccc(-c2c(-c3ccccn3)nc3n2CCC3)cc1` [OSA_000974], the MIC in data set [1] and in data set [5] was above 32 µg/mL throughout. Further, the “Aqueous Solubility (NEU)” value in “Aqueous solubility” was found to be 782 µM. Further, the fraction unbound in data set [2] was 0.55. Further, in data set [3], the “HLM CLint (NEU)” value is given as below 3 uL/min/mg protein. In data set [4], the “Rat Hep CLint (NEU)” value is below 1 uL/min/10x6 cells.

In the case of `Cc1cccc(-c2c(-c3ccccn3)nc3n2CCC3)c1` [OSA_000976], the MIC in data set [1] is 8 µg/mL (≈ 29.1 µM); in data set [5], 32 µg/mL (≈ 116 µM). For the same compound, the solubility in the data set “Aqueous solubility” came to 556 µM (≈ 153 µg/mL). Also, the fraction unbound in data set [2] is 0.061. In addition, the “HLM CLint (NEU)” value in data set [3] was found to be 76.1 uL/min/mg protein. In addition, in data set [4], the “Rat Hep CLint (NEU)” value turned out to be 62.5 uL/min/10x6 cells.

With `[2H]C([2H])([2H])N(c1ccc(F)cc1)c1c(-c2ccccn2)nc2ccccn12` [OSA_001002], the MIC in data set [1] and in data set [6] was 16 µg/mL (≈ 49.8 µM) in each case. Also, in “Aqueous solubility”, the solubility was determined as 116 µM (≈ 37.3 µg/mL).

Regarding `COc1ccnc(-c2nc3ccccn3c2N(C)c2ccc(F)cc2)c1` [OSA_001007], the MIC in data set [1] and in data set [6] was 8 µg/mL (≈ 23 µM) throughout. Besides, the solubility in the data set “Aqueous solubility” amounted to 26 µM (≈ 9.06 µg/mL). Moreover, the fraction unbound in data set [2] was 0.025. Also, the microsomal CLint in data set [3] (read-out: HLM CLint (NEU)) turned out to be 214 µL/min/mg. The hepatocyte CLint in data set [4] (read-out: Rat Hep CLint (NEU)) is above 300 µL/min/1e6 cells.
